Measurements from patent publication US9738932B2, “Biomarkers for cardiovascular side-effects induced by cox-2 inhibitory compounds” (FIRALIS SAS, priority 2005, dated 2017).

Tested on: mRNA expression in cardiovascular tissues
Experiment: Affymetrix GeneChip mRNA expression profiling of monkey tissues (iliac vein, pulmonary vein, aorta, carotid artery, heart) after two-week oral-gavage treatment
[1] = iliac vein, Vioxx animal A60055

CS(=O)(=O)c1ccc(C2=C(c3ccccc3)C(=O)OC2)cc1 [Vioxx®, rofecoxib]
expression of MHC class I classical and non-classical molecules, MHC class II molecules and their receptors (16 tissues, ANOVA p<0.05, 50 mg/kg/day, two weeks): significant increases | ACE (209749_s_at) mRNA expression, fold change vs control [1]: 1.3 fold | B2M (216231_s_at) mRNA expression, fold change vs control [1]: 1.4 fold | BCL6 (215990_s_at) mRNA expression, fold change vs control [1]: 1.3 fold | BTN2A2 (205298_s_at) mRNA expression, fold change vs control [1]: 1.4 fold | CCR1 (205098_at) mRNA expression, fold change vs control [1]: 1.4 fold | CD2 (205831_at) mRNA expression, fold change vs control [1]: 1.4 fold | CD48 (204118_at) mRNA expression, fold change vs control [1]: 1.5 fold | CD53 (203416_at) mRNA expression, fold change vs control [1]: 1.5 fold | CDC2 (210559_s_at) mRNA expression, fold change vs control [1]: 1.5 fold | CYBB (203922_s_at) mRNA expression, fold change vs control [1]: 1.4 fold | EMP3 (203729_at) mRNA expression, fold change vs control [1]: 1.4 fold | FCER1G (204232_at) mRNA expression, fold change vs control [1]: 1.4 fold | FCGR2A (203561_at) mRNA expression, fold change vs control [1]: 1.5 fold | FCGRT (218831_s_at) mRNA expression, fold change vs control [1]: 1.4 fold | FKBP11 (219117_s_at) mRNA expression, fold change vs control [1]: 1.4 fold | FKBP11 (219118_at) mRNA expression, fold change vs control [1]: 1.5 fold | GP6 (220336_s_at) mRNA expression, fold change vs control [1]: 1.4 fold | HCLS1 (202957_at) mRNA expression, fold change vs control [1]: 1.3 fold | HEM1 (209734_at) mRNA expression, fold change vs control [1]: 1.5 fold | HLA-A (210514_x_at) mRNA expression, fold change vs control [1]: 1.3 fold | HLA-A (213932_x_at) mRNA expression, fold change vs control [1]: 1.5 fold | HLA-C (211799_x_at) mRNA expression, fold change vs control [1]: 1.4 fold | HLA-E (200904_at) mRNA expression, fold change vs control [1]: 1.4 fold | HLA-F (221978_at) mRNA expression, fold change vs control [1]: 1.3 fold | ICAM1 (202637_s_at) mRNA expression, fold change vs control [1]: 1.3 fold | IL13RA1 (210904_s_at) mRNA expression, fold change vs control [1]: 1.2 fold | PIK3CD (203879_at) mRNA expression, fold change vs control [1]: 1.2 fold | PRKCBP1 (209048_s_at) mRNA expression, fold change vs control [1]: 1.3 fold | PRKCBP1 (209049_s_at) mRNA expression, fold change vs control [1]: 1.5 fold | PTPN7 (204852_s_at) mRNA expression, fold change vs control [1]: 1.4 fold | SIGIRR (52940_at) mRNA expression, fold change vs control [1]: 1.2 fold | STAT1 (200887_s_at) mRNA expression, fold change vs control [1]: 1.5 fold | STAT1 (AFFX-HUMISGF3A/M97935_3_at) mRNA expression, fold change vs control [1]: 1.4 fold | STAT3 (208992_s_at) mRNA expression, fold change vs control [1]: 1.5 fold | TCIRG1 (204158_s_at) mRNA expression, fold change vs control [1]: 1.2 fold | THY1 (213869_x_at) mRNA expression, fold change vs control [1]: 1.3 fold | TMPO (209753_s_at) mRNA expression, fold change vs control [1]: 1.5 fold | TMSB10 (217733_s_at) mRNA expression, fold change vs control [1]: 1.4 fold | TNFRSF21 (218856_at) mRNA expression, fold change vs control [1]: 1.5 fold | TRB@ (210915_x_at) mRNA expression, fold change vs control [1]: 1.3 fold | TRB@ (213193_x_at) mRNA expression, fold change vs control [1]: 1.5 fold | 209813_x_at fold change vs control (iliac vein, animal A60055): 2.4 fold | AIF1 (209901_x_at) fold change vs control (iliac vein, animal A60055): 3.0 fold | AIF1 (213095_x_at) fold change vs control (iliac vein, animal A60055): 3.2 fold | B2M (201891_s_at) fold change vs control (iliac vein, animal A60055): 3.0 fold | BCL3 (204908_s_at) fold change vs control (iliac vein, animal A60055): 1.7 fold | BTN3A1 (207485_x_at) fold change vs control (iliac vein, animal A60055): 4.0 fold | BTN3A3 (38241_at) fold change vs control (iliac vein, animal A60055): 2.3 fold | BTN3A3 (204820_s_at) fold change vs control (iliac vein, animal A60055): 4.1 fold | BTN3A3 (204821_at) fold change vs control (iliac vein, animal A60055): 3.3 fold | C1QA (218232_at) fold change vs control (iliac vein, animal A60055): 1.7 fold | C1QB (202953_at) fold change vs control (iliac vein, animal A60055): 1.8 fold | C1R (212067_s_at) fold change vs control (iliac vein, animal A60055): 2.0 fold | C1S (208747_s_at) fold change vs control (iliac vein, animal A60055): 3.6 fold | C2 (203052_at) fold change vs control (iliac vein, animal A60055): 3.3 fold | C4A (208451_s_at) fold change vs control (iliac vein, animal A60055): 3.8 fold | CASP1 (209970_x_at) fold change vs control (iliac vein, animal A60055): 2.3 fold | CASP1 (211367_s_at) fold change vs control (iliac vein, animal A60055): 2.7 fold | CCL2 (216598_s_at) fold change vs control (iliac vein, animal A60055): 150.9 fold | CCL3 (205114_s_at) fold change vs control (iliac vein, animal A60055): 3.8 fold | CCL5 (1405_i_at) fold change vs control (iliac vein, animal A60055): 2.8 fold | CCL8 (214038_at) fold change vs control (iliac vein, animal A60055): 8.8 fold | CCL18 (209924_at) fold change vs control (iliac vein, animal A60055): 2.0 fold | CCL19 (210072_at) fold change vs control (iliac vein, animal A60055): 3.0 fold | CCNB2 (202705_at) fold change vs control (iliac vein, animal A60055): 2.9 fold | CD3D (213539_at) fold change vs control (iliac vein, animal A60055): 1.9 fold | CD8A (205758_at) fold change vs control (iliac vein, animal A60055): 2.3 fold | CD14 (201743_at) fold change vs control (iliac vein, animal A60055): 2.0 fold | CD74 (209619_at) fold change vs control (iliac vein, animal A60055): 2.8 fold | CLU (208791_at) fold change vs control (iliac vein, animal A60055): 2.2 fold | CMAH (210571_s_at) fold change vs control (iliac vein, animal A60055): 2.0 fold | CTSC (201487_at) fold change vs control (iliac vein, animal A60055): 2.1 fold | CTSK (202450_s_at) fold change vs control (iliac vein, animal A60055): 1.5 fold | CTSS (202902_s_at) fold change vs control (iliac vein, animal A60055): 1.6 fold | CX3CR1 (205898_at) fold change vs control (iliac vein, animal A60055): 3.6 fold | CXCL9 (203915_at) fold change vs control (iliac vein, animal A60055): 9.3 fold | CXCL10 (204533_at) fold change vs control (iliac vein, animal A60055): 19.8 fold | CXCL11 (210163_at) fold change vs control (iliac vein, animal A60055): 9.7 fold | CXCL11 (211122_s_at) fold change vs control (iliac vein, animal A60055): 6.6 fold | CXCL12 (209687_at) fold change vs control (iliac vein, animal A60055): 1.6 fold | CYBA (203028_s_at) fold change vs control (iliac vein, animal A60055): 1.8 fold | CYBB (203923_s_at) fold change vs control (iliac vein, animal A60055): 1.6 fold | CYP1B1 (202436_s_at) fold change vs control (iliac vein, animal A60055): 2.6 fold | CYP3A5 (214234_s_at) fold change vs control (iliac vein, animal A60055): 3.9 fold | CYP11B1 (214630_at) fold change vs control (iliac vein, animal A60055): 2.5 fold | DUSP6 (208893_s_at) fold change vs control (iliac vein, animal A60055): 3.0 fold | ECGF1 (204858_s_at) fold change vs control (iliac vein, animal A60055): 3.3 fold | ECM1 (209365_s_at) fold change vs control (iliac vein, animal A60055): 2.0 fold | F2RL1 (206429_at) fold change vs control (iliac vein, animal A60055): 2.0 fold | F13A1 (203305_at) fold change vs control (iliac vein, animal A60055): 1.8 fold | FCGR1A (214511_x_at) fold change vs control (iliac vein, animal A60055): 2.0 fold | FCGR3A (204006_s_at) fold change vs control (iliac vein, animal A60055): 2.5 fold | G1P2 (205483_s_at) fold change vs control (iliac vein, animal A60055): 4.5 fold | GZMB (210164_at) fold change vs control (iliac vein, animal A60055): 3.2 fold | HCA127 (220040_x_at) fold change vs control (iliac vein, animal A60055): 2.0 fold | HCK (208018_s_at) fold change vs control (iliac vein, animal A60055): 1.8 fold | HFE (210864_x_at) fold change vs control (iliac vein, animal A60055): 1.8 fold
